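Each compound was tested at five concentrations against cells in 96-well plates for 48 hours. At the GI50, growth is halved.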 The source made the active and inactive calls. Cut-off read from the data, not from the text of the source: active = GI50 up to about 1.1 µM and inactive = higher.
Experiments:
Assay in all cases: inhibition of tumour cell growth, NCI panel, 48 h
[1] = system: MDA-MB-231
[2] = system: OVCAR-8
[3] = system: NCI-H226
[4] = system: TK-10
[5] = system: COLO 205
[6] = system: HCC 2998
[7] = system: SF-268
[8] = system: UACC-257
[9] = system: T47D
[10] = system: HOP-62
[11] = system: MDA-MB-435
[12] = system: MDA-N
[13] = system: SK-OV-3
[14] = system: IGROV-1
[15] = system: A498
[16] = system: Hs-578T
[17] = system: NCI-H23
[18] = system: KM12
[19] = system: K562
[20] = system: SF-539
[21] = system: EKVX
[22] = system: NCI-H460
[23] = system: ACHN
[24] = system: SW-620
[25] = system: HT-29
[26] = system: HL-60
[27] = system: SK-MEL-5
[28] = system: MCF7
[29] = system: CAKI-1
[30] = system: LOX IMVI
[31] = system: SNB-75
[32] = system: SNB-19
[33] = system: DU-145
[34] = system: RPMI-8226
[35] = system: BT-549
[36] = system: A549
[37] = system: M14
[38] = system: UO-31
[39] = system: UACC-62
[40] = system: SK-MEL-28
[41] = system: CCRF-CEM
[42] = system: SR
[43] = system: PC-3
[44] = system: SF-295
[45] = system: SN12C
[46] = system: MOLT-4
[47] = system: HCT-116
[48] = system: NCI-H522
[49] = system: HCT-15
[50] = system: Malme-3M
[51] = system: RXF 393
[52] = system: HOP-92
[53] = system: U-251
[54] = system: 786-0
[55] = system: OVCAR-4
[56] = system: OVCAR-5
[57] = system: SK-MEL-2
[58] = system: OVCAR-3
[59] = system: NCI/ADR-RES

Cc1nn(C(=O)Cc2ccccc2)c2c1C(c1ccc3ccccc3c1O)SC(=N)N2 (stereo unspecified)
GI50 [1]: > 100 µM (inactive)
GI50 [2]: > 100 µM (inactive)
GI50 [3]: > 100 µM (inactive)
GI50 [4]: > 100 µM (inactive)
GI50 [5]: > 100 µM (inactive)
GI50 [6]: > 100 µM (inactive)
GI50 [7]: > 100 µM (inactive)
GI50 [8]: > 100 µM (inactive)
GI50 [9]: > 100 µM (inactive)
GI50 [10]: > 100 µM (inactive)
GI50 [11]: > 100 µM (inactive)
GI50 [12]: > 100 µM (inactive)
GI50 [13]: > 100 µM (inactive)
GI50 [14]: > 100 µM (inactive)
GI50 [15]: > 100 µM (inactive)
GI50 [16]: > 100 µM (inactive)
GI50 [17]: > 100 µM (inactive)
GI50 [18]: > 100 µM (inactive)
GI50 [19]: > 100 µM (inactive)
GI50 [20]: > 100 µM (inactive)
GI50 [21]: > 100 µM (inactive)
GI50 [22]: > 100 µM (inactive)
GI50 [23]: > 100 µM (inactive)
GI50 [24]: > 100 µM (inactive)
GI50 [25]: > 100 µM (inactive)
GI50 [26]: 39.6 µM (inactive)
GI50 [27]: > 100 µM (inactive)
GI50 [28]: > 100 µM (inactive)
GI50 [29]: > 100 µM (inactive)
GI50 [30]: > 100 µM (inactive)
GI50 [31]: 52.1 µM (inactive)
GI50 [32]: > 100 µM (inactive)
GI50 [33]: > 100 µM (inactive)
GI50 [34]: 76.2 µM (inactive)
GI50 [35]: > 100 µM (inactive)
GI50 [36]: > 100 µM (inactive)
GI50 [37]: > 100 µM (inactive)
GI50 [38]: 80 µM (inactive)
GI50 [39]: > 100 µM (inactive)
GI50 [40]: > 100 µM (inactive)
GI50 [41]: 22.1 µM (inactive)
GI50 [42]: 48.9 µM (inactive)
GI50 [43]: > 100 µM (inactive)
GI50 [44]: > 100 µM (inactive)
GI50 [45]: > 100 µM (inactive)
GI50 [46]: 37.8 µM (inactive)
GI50 [47]: > 100 µM (inactive)
GI50 [48]: 67.8 µM (inactive)
GI50 [49]: > 100 µM

COc1ccc(-c2oc3cc(OC)ccc3c(=O)c2O)cc1
GI50 [50]: > 31.6 µM (inactive)
GI50 [1]: 43.4 µM (inactive)
GI50 [4]: > 100 µM (inactive)
GI50 [5]: > 100 µM (inactive)
GI50 [6]: > 10 µM (inactive)
GI50 [7]: 5.13 µM (inactive)
GI50 [8]: > 100 µM (inactive)
GI50 [9]: 9.42 µM (inactive)
GI50 [10]: 3.7 µM (inactive)
GI50 [11]: > 27.7 µM (inactive)
GI50 [12]: > 100 µM (inactive)
GI50 [14]: 4.25 µM (inactive)
GI50 [15]: > 100 µM (inactive)
GI50 [16]: 1.54 µM (inactive)
GI50 [51]: 3.15 µM (inactive)
GI50 [52]: 3.42 µM (inactive)
GI50 [53]: 3.31 µM (inactive)
GI50 [21]: > 100 µM (inactive)
GI50 [22]: 3.37 µM (inactive)
GI50 [25]: > 100 µM (inactive)
GI50 [27]: > 100 µM (inactive)
GI50 [28]: 3.43 µM (inactive)
GI50 [29]: 2.53 µM (inactive)
GI50 [30]: 4.12 µM (inactive)
GI50 [32]: > 100 µM (inactive)
GI50 [34]: > 23.1 µM (inactive)
GI50 [35]: 0.668 µM (active)
GI50 [54]: 9.02 µM (inactive)
GI50 [37]: > 25.5 µM (inactive)
GI50 [39]: 5.19 µM (inactive)
GI50 [40]: > 25.4 µM (inactive)
GI50 [42]: 3.57 µM (inactive)
GI50 [43]: > 100 µM (inactive)
GI50 [44]: 4.79 µM (inactive)
GI50 [46]: 2.66 µM (inactive)
GI50 [47]: 4.15 µM (inactive)
GI50 [55]: 3.88 µM (inactive)
GI50 [48]: 3.18 µM (inactive)
GI50 [49]: 3.63 µM

O=C1O/C(=C\C=C\CO)C=C1/C=C/CO [LISSOCLINOLIDE]
GI50 [50]: 13.8 µM (inactive)
GI50 [1]: 21.3 µM (inactive)
GI50 [2]: 19.2 µM (inactive)
GI50 [3]: 36.5 µM (inactive)
GI50 [4]: 19.1 µM (inactive)
GI50 [5]: 2.23 µM (inactive)
GI50 [7]: 24.5 µM (inactive)
GI50 [9]: 20.7 µM (inactive)
GI50 [11]: 35.7 µM (inactive)
GI50 [12]: 21.3 µM (inactive)
GI50 [13]: 61.2 µM (inactive)
GI50 [14]: 16 µM (inactive)
GI50 [51]: 19 µM (inactive)
GI50 [17]: 18.5 µM (inactive)
GI50 [18]: 36.9 µM (inactive)
GI50 [53]: 40.8 µM (inactive)
GI50 [19]: 31.2 µM (inactive)
GI50 [20]: 24.1 µM (inactive)
GI50 [21]: 15.3 µM (inactive)
GI50 [22]: 32.1 µM (inactive)
GI50 [23]: 24.2 µM (inactive)
GI50 [24]: 18.2 µM (inactive)
GI50 [25]: 23 µM (inactive)
GI50 [26]: 29.3 µM (inactive)
GI50 [27]: 22.1 µM (inactive)
GI50 [28]: 36.3 µM (inactive)
GI50 [29]: 14.5 µM (inactive)
GI50 [30]: 35.6 µM (inactive)
GI50 [31]: > 100 µM (inactive)
GI50 [32]: 23.5 µM (inactive)
GI50 [33]: 21 µM (inactive)
GI50 [34]: 16.4 µM (inactive)
GI50 [35]: 20 µM (inactive)
GI50 [56]: 20 µM (inactive)
GI50 [54]: 12.5 µM (inactive)
GI50 [36]: 36.4 µM (inactive)
GI50 [37]: 20.2 µM (inactive)
GI50 [38]: 16.5 µM (inactive)
GI50 [39]: 18.9 µM (inactive)
GI50 [40]: 24.4 µM (inactive)
GI50 [41]: 22.9 µM (inactive)
GI50 [42]: 34.9 µM (inactive)
GI50 [57]: 19.3 µM (inactive)
GI50 [43]: 14.3 µM (inactive)
GI50 [44]: 39 µM (inactive)
GI50 [45]: 27.9 µM (inactive)
GI50 [46]: 50.6 µM (inactive)
GI50 [47]: 14 µM (inactive)
GI50 [55]: 45.5 µM (inactive)
GI50 [58]: 24.2 µM (inactive)
GI50 [48]: 10.3 µM (inactive)
GI50 [49]: 12.3 µM
GI50 [59]: 33.3 µM (inactive)

— ChEMBL document CHEMBL1201862, “PubChem BioAssay data set” (2004)
